The assay relates to HT29 intrarenal xenograft, nude mice, tumor weight change. The experiment in a line: NCI In Vivo Anticancer Drug Screen. Data for tumor model HT29;CX-1 Human Adenocarcinoma (MER+) (intrarenal inoculation) in NU/NU BALB/C (nude) mice. The note with it: endpoint: mean tumor weight change, higher = larger tumour. The procedure:
The antitumor activity of compounds was measured in mice bearing transplantable tumors. Survival or tumor size were measured and the results are expressed as the measurement made in the treated group (T) divided by the measurement made in the vehicle treated control group (C). The tumor model used in this assay is HT29;CX-1 Human Adenocarcinoma (MER+) (intrarenal inoculation) in NU/NU BALB/C (nude) mice

The mark [1] stands for this setting: dose: 50.0 mg/kg/injection, schedule: Q04DX004 (sc), vehicle: saline.
[2] abbreviates: dose: 100.0 mg/kg/injection, schedule: Q04DX004 (sc), vehicle: saline.

For 18 compounds, T/C results are on record in PubChem BioAssay AID208 (DTP/NCI, 2004).

Several values for one entry are separate records, joined by “and”; a condition that tells them apart may be missing. Equal entries are not always repeated. Results filed as inconclusive are left out. *1 amine or outer side, *2 acyl side, *3 side chain or, on linkers, in order; H or OH if unused. Where a SMILES comes first, the peptide text is derived from it. Bridges are numbered along the chain shown (N, C = ends). Roman numbers before positions name the chains, in order. [ ]: non-standard residue; d: D form. Actinocin(9to1) = Cc1c2oc3c(C)ccc(C(=O)[*:1])c3nc-2c(C(=O)[*:2])c(N)c1=O; aThr = C[C@H](O)[C@H](N)C(=O)O; NMeV = CN[C@H](C(=O)O)C(C)C; Sar = CNCC(=O)O

For the compound `C[CH2][Sn]([CH2]C)([O]S(C)(=O)=O)[O]S(C)(=O)=O`, the T/C is, setting by setting: (dose: 6.25 mg/kg/injection, schedule: Q04DX004 (sc), vehicle: saline with Tween-80) 169 % of control; (dose: 12.5 mg/kg/injection, schedule: Q04DX004 (sc), vehicle: saline with Tween-80) 107 % of control.

With `[Na+]`, the T/C by setting is: (dose: 150.0 mg/kg/injection, schedule: Q04DX004 (ip), vehicle: water) 55 % of control; (dose: 300.0 mg/kg/injection, schedule: Q04DX004 (ip), vehicle: water) 70 % of control; (dose: 600.0 mg/kg/injection, schedule: Q04DX004 (ip), vehicle: water) 16 % of control; (dose: 1200.0 mg/kg/injection, schedule: Q04DX004 (ip), vehicle: water) 76 % of control.

Turning to `CC1(C)COCN1COCCOCN1COCC1(C)C`, the T/C is, setting by setting: under setting [1], 66 % of control; under setting [2], 122 % of control; (dose: 200.0 mg/kg/injection, schedule: Q04DX004 (sc), vehicle: saline) 58 % of control; (dose: 400.0 mg/kg/injection, schedule: Q04DX004 (sc), vehicle: saline) 122 % of control.

With `C=CC(C)(C)n1cc(C2=C(O)C(=O)C(c3cn(C(C)(C)C=C)c4ccccc34)=C(O)C2=O)c2ccccc21`, the T/C was 113 % of control (dose: 25.0 mg/kg/injection, schedule: Q04DX004 (sc), vehicle: Klucel (hydroxypropylcellulose) (HPC)); 118 % of control (dose: 100.0 mg/kg/injection, schedule: Q04DX004 (sc), vehicle: Klucel (hydroxypropylcellulose) (HPC)); 121 % of control (dose: 200.0 mg/kg/injection, schedule: Q04DX004 (sc), vehicle: Klucel (hydroxypropylcellulose) (HPC)).

For the compound `CCC1=C[C@H]2CN(CCc3c([nH]c4ccccc34)[C@@](C(=O)OC)(c3cc4c(cc3OC)N(C)[C@H]3[C@@](O)(C(=O)OC)[C@H](OC(C)=O)[C@]5(CC)C=CCN6CC[C@]43[C@@H]65)C2)C1`, the T/C (dose: 0.38 mg/kg/injection, schedule: Q04DX004 (sc), vehicle: water) was 116 % of control; the T/C (dose: 0.75 mg/kg/injection, schedule: Q04DX004 (sc), vehicle: water) is 159 % of control; the T/C (dose: 1.5 mg/kg/injection, schedule: Q04DX004 (sc), vehicle: water) was 118 % of control; the T/C (dose: 3.0 mg/kg/injection, schedule: Q04DX004 (sc), vehicle: water) is 40 % of control; the T/C (dose: 6.0 mg/kg/injection, schedule: Q04DX004 (sc), vehicle: water) was 100 % of control; the T/C (dose: 12.0 mg/kg/injection, schedule: Q04DX004 (sc), vehicle: water) is 66 % of control.

For the compound `NC1(C(=O)O)CCCC1`, the T/C (dose: 50.0 mg/kg/injection, schedule: Q01DX010 (sc), vehicle: saline) is 37 % of control and 40 % of control; the T/C (dose: 100.0 mg/kg/injection, schedule: Q01DX010 (sc), vehicle: saline) was 12 % of control and 22 % of control.

Consider `O=c1c(O)c(-c2cc(O)c(O)c(O)c2)oc2cc(O)cc(O)c12`, for which the T/C is 105 % of control (dose: 1.5 mg/kg/injection, schedule: Q04DX004 (sc), vehicle: saline with Tween-80); 114 % of control (dose: 3.0 mg/kg/injection, schedule: Q04DX004 (sc), vehicle: saline with Tween-80); 107 % of control (dose: 6.0 mg/kg/injection, schedule: Q04DX004 (sc), vehicle: saline with Tween-80); 106 % of control (dose: 12.0 mg/kg/injection, schedule: Q04DX004 (sc), vehicle: saline with Tween-80); 63 % of control (dose: 50.0 mg/kg/injection, schedule: Q04DX004 (sc), vehicle: saline with Tween-80); 73 % of control (dose: 100.0 mg/kg/injection, schedule: Q04DX004 (sc), vehicle: saline with Tween-80). In addition, the T/C was 77 % of control (dose: 200.0 mg/kg/injection, schedule: Q04DX004 (sc), vehicle: saline with Tween-80) and 103 % of control (dose: 400.0 mg/kg/injection, schedule: Q04DX004 (sc), vehicle: saline with Tween-80).

Take `CO[C@H](/C(C)=C/C=C/C(C)=C/c1coc(C)n1)[C@H](C)[C@H]1C[C@@H](O)[C@@]2(C)O[C@H]2/C=C/[C@@H](C)[C@@H]2C[C@@H](CC(=O)O2)C[C@H]2O[C@@H]2C(=O)O1`: the T/C is 73 % of control and 88 % of control (dose: 0.13 mg/kg/injection, schedule: Q04DX004 (sc), vehicle: Klucel (hydroxypropylcellulose) (HPC)); 57 % of control (dose: 1.0 mg/kg/injection, schedule: Q04DX004 (sc), vehicle: Klucel (hydroxypropylcellulose) (HPC)).

As for `Cc1cc2cc3cc(C)c(N)cc3nc2cc1N`, the T/C by setting is: (dose: 600.0 mg/kg/injection, schedule: Q04DX004 (sc), vehicle: saline with Tween-80) 115 % of control; (dose: 2400.0 mg/kg/injection, schedule: Q04DX004 (sc), vehicle: saline with Tween-80) 77 % of control.

`CO[C@H]1C[C@@H]2CC[C@@H](C)[C@@](O)(O2)C(=O)C(=O)N2CCCC[C@H]2C(=O)O[C@H]([C@H](C)C[C@@H]2CC[C@@H](O)[C@H](OC)C2)CC(=O)[C@H](C)C=C(C)[C@@H](O)[C@@H](OC)C(=O)[C@H](C)C[C@H](C)/C=C/C=C/C=C1C`: the T/C reads like this: (dose: 200.0 mg/kg/injection, schedule: Q01DX010 (sc), vehicle: saline with Tween-80) 84 % of control; (dose: 400.0 mg/kg/injection, schedule: Q01DX010 (sc), vehicle: saline with Tween-80) 40 % of control; (dose: 800.0 mg/kg/injection, schedule: Q01DX010 (sc), vehicle: saline with Tween-80) 59 % of control; (dose: 1600.0 mg/kg/injection, schedule: Q01DX010 (sc), vehicle: saline with Tween-80) 25 % of control.

For the compound `O=CC(NC(=O)N(CCCl)N=O)C(O)C(O)C(O)CO` (centres undefined), the T/C was 45 % of control (dose: 1.5 mg/kg/injection, schedule: Q01DX010 (sc), vehicle: Klucel (hydroxypropylcellulose) (HPC)); 42 % of control (dose: 3.0 mg/kg/injection, schedule: Q01DX010 (sc), vehicle: Klucel (hydroxypropylcellulose) (HPC)); 35 % of control (dose: 6.0 mg/kg/injection, schedule: Q01DX010 (sc), vehicle: Klucel (hydroxypropylcellulose) (HPC)).

For the compound `CCC1OCC(C(Cl)CCl)O1` (centres undefined), the T/C runs as follows: (dose: 177.0 mg/kg/injection, schedule: Q01DX014 (sc), vehicle: other) 57 % of control and 75 % of control; (dose: 267.0 mg/kg/injection, schedule: Q01DX014 (sc), vehicle: other) 85 % of control; (dose: 600.0 mg/kg/injection, schedule: Q01DX014 (sc), vehicle: other) 61 % of control; (dose: 900.0 mg/kg/injection, schedule: Q01DX014 (sc), vehicle: Klucel (hydroxypropylcellulose) (HPC)) 10 % of control.

As for `CS(=O)(=O)OCCCNCCCOS(C)(=O)=O`, where the note is “dose: 75.0 mg/kg/injection, schedule: Q04DX004 (sc), vehicle: saline”, the T/C is 71 % of control.

As to `O=c1[nH]c(=O)n([C@H]2CCCO2)cc1F`, the T/C runs as follows: (dose: 46.4 mg/kg/injection, schedule: Q01DX010 (ip), vehicle: Klucel (hydroxypropylcellulose) (HPC)) 41 % of control; (dose: 69.8 mg/kg/injection, schedule: Q01DX010 (ip), vehicle: Klucel (hydroxypropylcellulose) (HPC)) 68 % of control; (dose: 104.6 mg/kg/injection, schedule: Q04DX004 (ip), vehicle: Klucel (hydroxypropylcellulose) (HPC)) 61 % of control; (dose: 157.4 mg/kg/injection, schedule: Q04DX004 (ip), vehicle: Klucel (hydroxypropylcellulose) (HPC)) 40 % of control; (dose: 157.8 mg/kg/injection, schedule: Q01DX010 (ip), vehicle: Klucel (hydroxypropylcellulose) (HPC)) 31 % of control; (dose: 236.7 mg/kg/injection, schedule: Q04DX004 (ip), vehicle: Klucel (hydroxypropylcellulose) (HPC)) 53 % of control.

Take `CC[C@](O)(C(=O)O)c1cc2n(c(=O)c1CO)Cc1cc3ccccc3nc1-2`: under “dose: 31.25 mg/kg/injection, schedule: Q04DX004 (sc), vehicle: saline”, the T/C was 39 % of control.

As for `Cc1c2oc3c(C)ccc(C(=O)N[C@@H]4C(=O)N[C@H](C(C)C)C(=O)N5CCC[C@H]5C(=O)N(C)CC(=O)N(C)[C@@H](C(C)C)C(=O)O[C@H]4C)c3nc-2c(C(=O)N[C@@H]2C(=O)N[C@H](C(C)C)C(=O)N3CCC[C@H]3C(=O)N(C)CC(=O)N(C)[C@@H](C(C)C)C(=O)O[C@H]2C)c(N)c1=O` (I: [aThr][dV]P[Sar][NMeV] / II: [aThr][dV]P[Sar][NMeV]; ester I:1-I:C, II:1-II:C; linker I:N-II:N via Actinocin(9to1)), the T/C runs as follows: (dose: 0.03 mg/kg/injection, schedule: Q04DX004 (ip), vehicle: saline) 77 % of control; (dose: 0.05 mg/kg/injection, schedule: Q04DX004 (ip), vehicle: saline) 77 % of control; (dose: 0.08 mg/kg/injection, schedule: Q04DX004 (ip), vehicle: saline) 97 % of control.

`Oc1ccc(O)cc1`: the T/C under setting [2] is 106 % of control.

Consider `CNC(=O)ON(C(C)=O)C(=O)NC`, for which the T/C is 114 % of control (dose: 25.0 mg/kg/injection, schedule: Q04DX004 (sc), vehicle: saline); 80 % of control under setting [1]; 56 % of control under setting [2].
